Assay results from patent US7816353B2 (Exelixis, Inc., priority 2003, dated 2010).

Tests used:
Assay type in all cases: biochemical
[1] = target: T1, p70S6K (Homo sapiens, UniProt P23443, T412E); test: p70S6 Kinase Assay (Luciferase-Coupled Chemiluminescent Kinase assay, LCCA); settings: human p70S6 kinase domain residues 1-421, T412E; 5 μM ATP; read-out: p70S6K IC50
T1 construct: human p70S6 kinase domain residues 1-421, containing a T412E mutation; made in house
Procedure, shortened: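 Luciferase-coupled chemiluminescence measured percent ATP remaining after the 2 h kinase reaction at ambient temperature, with ATP near the kinase's KM. Ten inhibitor concentrations were tested. IC50 was obtained from a Hill-equation fit.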

[2] = target: T2, Akt1 (Homo sapiens, UniProt P31749); test: Akt1 Kinase Assay (Luciferase-Coupled Chemiluminescent Kinase assay, LCCA); settings: human Akt1 kinase domain residues R144-A480, activated with PDK1; 1 μM ATP; read-out: Akt-1 IC50
T2 construct: made in house
T2 sequence (P31749 144-480): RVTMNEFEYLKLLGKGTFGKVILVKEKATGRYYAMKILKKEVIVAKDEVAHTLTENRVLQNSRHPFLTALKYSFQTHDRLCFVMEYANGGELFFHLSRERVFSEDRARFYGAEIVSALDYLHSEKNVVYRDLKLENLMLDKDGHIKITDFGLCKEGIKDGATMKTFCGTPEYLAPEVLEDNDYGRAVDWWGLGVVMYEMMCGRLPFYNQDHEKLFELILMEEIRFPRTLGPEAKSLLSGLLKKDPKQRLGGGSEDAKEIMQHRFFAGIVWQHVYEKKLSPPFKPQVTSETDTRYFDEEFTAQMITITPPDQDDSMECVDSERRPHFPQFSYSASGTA
Description: (§1) Kinase activity and compound inhibition are investigated using one or more of the three assay formats described below. The ATP concentrations for each assay are selected to be close to the Michaelis-Menten constant (KM) for each individual kinase. Dose-response experiments are performed at 10 different inhibitor concentrations in a 384-well plate format. The data are fitted to four-parameter equation (2) below; where Y is the observed signal, X is the inhibitor concentration, Min is the background signal in the absence of enzyme (0% enzyme activity), Max is the signal in the absence of inhibitor (100% enzyme activity), IC50 is the inhibitor concentration at 50% enzyme inhibition and H represents the empirical Hill's slope to measure the cooperativity. Typically H is close to unity. Y=Min+(Max−Min)/(1+(X/IC50)^H) Equation (2) p70S6 Kinase Assay
Biochemical activity of Akt1 kinase was assessed using a Luciferase-Coupled Chemiluminescent Kinase assay (LCCA) format. Kinase activity was measured as the percent ATP remaining following the kinase reaction. Remaining ATP was detected by luciferase-luciferin-coupled chemiluminescence. Specifically, the reaction was initiated by mixing test compounds, 1 μM ATP, 5 μM crosstide peptide and 1.3 nM Akt1 (baculovirus expressed human Akt1 kinase domain residues R144-A480, activated with PDK1) in a 20 uL assay buffer (20 mM Tris-HCL pH 7.5, 10 mM MgCl2, 0.01% Triton X-100, 1 mM DTT, 3 mM MnCl2). The mixture is incubated at ambient temperature for 3 hours after which 20 μL luciferase-luciferin mix is added and the chemiluminescent signal read using a Wallac Victor2 reader. The luciferase-luciferin mix consists of 50 mM HEPES, pH 7.8, 8.5 μg/mL oxalic acid (pH 7.8), 5 (or 50) mM DTT, 0.4% Triton X-100, 0.25 mg/mL coenzyme A, 63 uM AMP, 28 μg/mL luciferin and 40,000 units/mL luciferase.

[3] = target: T3, PDK1 (Homo sapiens, UniProt O15530); test: PDK1 Kinase Assay (Luciferase-Coupled Chemiluminescent Kinase assay, LCCA); settings: human PDK1 kinase domain residues M51-T359; 0.5 μM ATP; read-out: PDK-1 IC50
T3 construct: human PDK1 kinase domain residues M51-T359; made in house
T3 sequence (O15530 51-359): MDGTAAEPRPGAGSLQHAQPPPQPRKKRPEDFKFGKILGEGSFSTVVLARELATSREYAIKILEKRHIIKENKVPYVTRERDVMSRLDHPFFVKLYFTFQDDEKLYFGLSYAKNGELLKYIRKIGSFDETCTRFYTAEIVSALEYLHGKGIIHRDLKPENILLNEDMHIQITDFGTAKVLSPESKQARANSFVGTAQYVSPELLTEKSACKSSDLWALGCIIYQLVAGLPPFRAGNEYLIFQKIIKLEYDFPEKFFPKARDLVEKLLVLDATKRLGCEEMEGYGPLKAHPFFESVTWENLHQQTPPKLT
Description: as §1
Biochemical activity of PDK1 kinase was assessed using a Luciferase-Coupled Chemiluminescent Kinase assay (LCCA) format. Kinase activity was measured as the percent ATP remaining following the kinase reaction. Remaining ATP was detected by luciferase-luciferin-coupled chemiluminescence. Specifically, the reaction was initiated by mixing test compounds, 0.5 μM ATP, 0.6 μM PDKtide peptide and 6 nM PDK1 (baculovirus expressed human PDK1 kinase domain residues M51-T359) in a 20 uL assay buffer (20 mM Hepes pH 7.5, 1 mM CaCl2, 0.03% CHAPS, 2 mM DTT). The mixture is incubated at ambient temperature for 3 hours after which 20 μL luciferase-luciferin mix is added and the chemiluminescent signal read using a Wallac Victor2 reader. The luciferase-luciferin mix consists of 50 mM HEPES, pH 7.8, 8.5 μg/mL oxalic acid (pH 7.8), 5 (or 50) mM DTT, 0.4% Triton X-100, 0.25 mg/mL coenzyme A, 63 uM AMP, 28 μg/mL luciferin and 40,000 units/mL luciferase.

T1 sequence (P23443 1-421 T412E): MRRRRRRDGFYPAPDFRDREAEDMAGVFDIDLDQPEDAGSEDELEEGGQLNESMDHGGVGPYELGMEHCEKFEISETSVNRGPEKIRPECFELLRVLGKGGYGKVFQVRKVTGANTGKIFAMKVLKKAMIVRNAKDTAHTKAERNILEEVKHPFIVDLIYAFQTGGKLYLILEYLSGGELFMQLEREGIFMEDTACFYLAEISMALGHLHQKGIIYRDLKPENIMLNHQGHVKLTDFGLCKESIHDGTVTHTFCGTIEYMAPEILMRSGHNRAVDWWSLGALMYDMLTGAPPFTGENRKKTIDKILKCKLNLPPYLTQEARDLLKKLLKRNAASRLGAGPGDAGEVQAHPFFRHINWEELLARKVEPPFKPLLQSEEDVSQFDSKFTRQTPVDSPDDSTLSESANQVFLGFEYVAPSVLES

For CSc1nc(N)nc(SCC(=O)Nc2cccc(C(F)(F)F)c2)c1C#N [Example 21, 2-{[2-amino-5-cyano-6-(methylthio)pyrimidin-4-yl]thio}-N-[3-(trifluoromethyl)phenyl]acetamide], the IC50 [1] was less than 50 nM, the IC50 [2] was greater than 2000 nM and the IC50 [3] was greater than 2000 nM.
In the case of CCCCOc1cccc(NC(=O)CSc2nc(N)nc(SC)c2C#N)c1 [Example 22, 2-{[2-amino-5-cyano-6-(methylthio)pyrimidin-4-yl]thio}-N-[3-(butyloxy)phenyl]acetamide], the IC50 [1] is reported as less than 50 nM, the IC50 [2] is reported as greater than 2000 nM and the IC50 [3] is reported as greater than 2000 nM.
Compound CCc1nnc(NC(=O)CSc2nc(N)nc(SC)c2C#N)s1 [Example 24, 2-{[2-amino-5-cyano-6-(methylthio)pyrimidin-4-yl]thio}-N-(5-ethyl-1,3,4-thiadiazol-2-yl)acetamide] has an IC50 [1] of less than 50 nM, an IC50 [2] greater than 2000 nM and an IC50 [3] greater than 2000 nM.
CSc1nc(N)nc(SCC(=O)Nc2nc(C)cs2)c1C#N [Example 25, 2-{[2-amino-5-cyano-6-(methylthio)pyrimidin-4-yl]thio}-N-(4-methyl-1,3-thiazol-2-yl)acetamide] showed an IC50 [1] of less than 50 nM, an IC50 [2] greater than 2000 nM and an IC50 [3] greater than 2000 nM.
With CSc1nc(N)nc(SCC(=O)n2nc(C)cc2C)c1C#N [Example 26, 2-amino-4-{[2-(3,5-dimethyl-1H-pyrazol-1-yl)-2-oxoethyl]thio}-6-(methylthio)pyrimidine-5-carbonitrile] the IC50 [1] was less than 50 nM, the IC50 [2] was greater than 2000 nM and the IC50 [3] was greater than 2000 nM.
CSc1nc(N)nc(SCC(=O)Nc2nccs2)c1C#N [Example 27, 2-{[2-amino-5-cyano-6-(methylthio)pyrimidin-4-yl]thio}-N-1,3-thiazol-2-ylacetamide] was tested, and the IC50 [1] was less than 50 nM, the IC50 [2] was greater than 2000 nM and the IC50 [3] was greater than 2000 nM.
CCOC(=O)c1sc(NC(=O)CSc2nc(N)nc(SC)c2C#N)c(C#N)c1C [Example 28, ethyl 5-[({[2-amino-5-cyano-6-(methylthio)pyrimidin-4-yl]thio}acetyl)amino]-4-cyano-3-methylthiophene-2-carboxylate] showed an IC50 [1] of less than 50 nM, an IC50 [2] greater than 2000 nM and an IC50 [3] greater than 2000 nM.
CSc1nc(N)nc(SCC(=O)Nc2ccccn2)c1C#N [Example 29, 2-{[2-amino-5-cyano-6-(methylthio)pyrimidin-4-yl]thio}-N-pyridin-2-ylacetamide] gave an IC50 [1] of less than 50 nM, an IC50 [2] greater than 2000 nM and an IC50 [3] greater than 2000 nM.
Work on COc1ccc(OC)c(C(=O)CSc2nc(N)nc(SC)c2C#N)c1 [Example 30, 2-amino-4-({2-[2,5-bis(methyloxy)phenyl]-2-oxoethyl}thio)-6-(methylthio)pyrimidine-5-carbonitrile] yielded an IC50 [1] of less than 50 nM, an IC50 [2] greater than 2000 nM and an IC50 [3] greater than 2000 nM.
CSc1nc(N)nc(SCC(=O)Nc2ccc(F)c(C(F)(F)F)c2)c1C#N [Example 31, 2-{[2-amino-5-cyano-6-(methylthio)pyrimidin-4-yl]thio}-N-[4-fluoro-3-(triuoromethyl)phenyl]acetamide] showed an IC50 [1] of less than 50 nM, an IC50 [2] greater than 2000 nM and an IC50 [3] greater than 2000 nM.
Nc1cc(SCC(=O)Nc2ccc(F)c(C(F)(F)F)c2)nc(N)n1 [Example 32, 2-[(2,6-diaminopyrimidin-4-yl)thio]-N-[4-fluoro-3-(trifluoromethyl)phenyl]acetamide] gave an IC50 [1] of less than 50 nM, an IC50 [2] greater than 2000 nM and an IC50 [3] greater than 2000 nM.
Compound Nc1cc(SCC(=O)Nc2cccc(C(F)(F)F)c2)nc(N)n1 [Example 33, 2-[(2,6-diaminopyrimidin-4-yl)thio]-N-[3-(trifluoromethyl)phenyl]acetamide] has an IC50 [1] of less than 50 nM, an IC50 [2] greater than 2000 nM and an IC50 [3] greater than 2000 nM.
CSc1nc(N)nc(SCC(=O)Nc2ccc(Cl)c(C(F)(F)F)c2)c1C#N [Example 34, 2-{[2-amino-5-cyano-6-(methylthio)pyrimidin-4-yl]thio}-N-[4-chloro-3-(trifluoromethyl)phenyl]acetamide] was tested, and the IC50 [1] was less than 50 nM, the IC50 [2] was greater than 2000 nM and the IC50 [3] was greater than 2000 nM.
CSc1nc(N)nc(SC2CCN(c3cccc(C(F)(F)F)c3)C2=O)c1C#N (stereo not drawn) [Example 35, 2-amino-4-(methylthio)-6-({2-oxo-1-[3-(trifluoromethyl)phenyl]pyrrolidin-3-yl}thio)pyrimidine-5-carbonitrile] showed an IC50 [1] of less than 50 nM, an IC50 [2] greater than 2000 nM and an IC50 [3] greater than 2000 nM.
Compound CSc1nc(N)nc(SCC(=O)Nc2cccc(C(F)(F)F)n2)c1C#N [Example 36, 2-{[2-amino-5-cyano-6-(methylthio)pyrimidin-4-yl]thio}-N-[6-(trifluoromethyl)pyridin-2-yl]acetamide] has an IC50 [1] of less than 50 nM, an IC50 [2] greater than 2000 nM and an IC50 [3] greater than 2000 nM.
Compound CSc1nc(N)nc(SCC(=O)Nc2cc(C(F)(F)F)ccn2)c1C#N [Example 37, 2-{[2-amino-5-cyano-6-(methylthio)pyrimidin-4-yl]thio}-N-[4-(trifluoromethyl)pyridin-2-yl]acetamide] has an IC50 [1] of less than 50 nM, an IC50 [2] greater than 2000 nM and an IC50 [3] greater than 2000 nM.
For CSc1cc(COC(=O)Nc2cccc(C(F)(F)F)c2)nc(NCc2ccccc2)n1 [Example 38, {6-(methylthio)-2-[(phenylmethyl)amino]pyrimidin-4-yl}methyl [3-(trifluoromethyl)phenyl]carbamate], the IC50 [1] was less than 50 nM, the IC50 [2] was greater than 2000 nM and the IC50 [3] was greater than 2000 nM.
Compound CNc1cc(COC(=O)Nc2cccc(C(F)(F)F)c2)nc(SC)n1 [Example 39, [6-(methylamino)-2-(methylthio)pyrimidin-4-yl]methyl [3-(trifluoromethyl)phenyl]carbamate] has an IC50 [1] of less than 50 nM, an IC50 [2] greater than 2000 nM and an IC50 [3] greater than 2000 nM.
CSc1nc(COC(=O)Nc2cccc(C(F)(F)F)c2)cc(NCc2ccccc2)n1 [Example 40, {2-(methylthio)-6-[(phenylmethyl)amino]pyrimidin-4-yl}methyl [3-(trifluoromethyl)phenyl]carbamate] was tested, and the IC50 [1] was less than 50 nM, the IC50 [2] was greater than 2000 nM and the IC50 [3] was greater than 2000 nM.
With CSc1nc(N)nc(SCC(=O)c2ccc3c(c2)NC(=O)CO3)c1C#N [Example 49, 2-amino-4-(methylthio)-6-{[2-oxo-2-(3-oxo-3,4-dihydro-2H-1,4-benzoxazin-6-yl)ethyl]thio}pyrimidine-5-carbonitrile] the IC50 [1] was 50 to 500 nM, the IC50 [2] was greater than 2000 nM and the IC50 [3] was greater than 2000 nM.
With CCOc1nc(N)nc(N[C@@H](CCCN)C(=O)Nc2cccc(C(F)(F)F)c2)c1C#N [Example 129, N^2-[2-amino-5-cyano-6-(ethyloxy)pyrimidin-4-yl]-N-[3-(trifluoromethyl)phenyl]-L-ornithinamide] the IC50 [1] was greater than 2000 nM, the IC50 [2] was greater than 2000 nM and the IC50 [3] was greater than 2000 nM.
Compound CSc1nc(N)nc(N(C)[C@@H](C)C(=O)Nc2cc(C(=O)NCCN(C)C)cc(C(F)(F)F)c2)c1C#N [Example 130, 3-({N-[2-amino5-cyano-6-(methylthio)pyrimidin-4-yl]-N-methyl-L-alanyl}amino)-N-[2-(dimethylamino)ethyl]-5-(trifluoromethyl)benzamide] has an IC50 [1] of less than 50 nM, an IC50 [2] greater than 2000 nM and an IC50 [3] greater than 2000 nM.
